Reference: BindingDB's records for doi:10.1021/jm300752n (Emory University, 2012)
pIC50: −log10 of the molar value.

assay: Inhibition of P300 CH1 domain-mediated HIF1 transcriptional activity in human LN229-V6R cells assessed as reduction in luciferase activity incubated for 1 hr under normoxia followed by 24 hrs under hypoxia by reporter gene assay

pIC50, 5.30:
CC(C)CN(Cc1ccc2c(c1)C=CC(C)(C)O2)S(=O)(=O)c1nccs1
CC(C)CN(Cc1ccc2c(c1)C=CC(C)(C)O2)S(=O)(=O)c1nccn1C
COc1cc(CN(C(C)C)S(=O)(=O)c2ccccn2)cc2c1OC(C)(C)C=C2
CC(C)CN(Cc1ccc2c(c1)C=CC(C)(C)O2)S(=O)(=O)c1ccccn1
